Measured values from US9656981B2, “Peripherally-acting cannabinoid receptor agonists for chronic pain” (The Regents of the University of California, priority 2012, dated 2017).
Read-outs that look alike come from different tables or passages of the source.

Tests used:
[1] = tested on: sciatic nerve entrapment (SNE) neuropathy; assay: SNE neuropathy, mechanical allodynia (von Frey); assay type: in vivo, rat; conditions: for effect on contralateral hindpaw withdrawal thresholds / effect on SNE-induced mechanical allodynia (ipsilateral hindpaw withdrawal thresholds) / SNE Neuropath Assay-% return to pre-drug (0.3 mg/kg) contralateal threshold at 2-3 h: 0.3 mg/kg; for effect on contralateral hindpaw withdrawal thresholds: hindpaw contralateral to SNE; for effect on SNE-induced mechanical allodynia (ipsilateral hindpaw withdrawal thresholds): systemic injection; for effect of pretreatment with the CBR blocker on the anti-allodynic effect of PrNMI: blocker before PrNMI 0.6 mg/kg, SNE rats
Description: The effectiveness of CBR agonists was tested for alleviating the painful symptoms of neuropathy induced by unilateral sciatic nerve entrapment (SNE)^131. The peripheral neuropathy induced by SNE is highly comparative to that of chronic constriction injury (CCI), which uses chromic gut suture materials instead of polyethylene cuffs^132. […] This increased excitability is at least in part attributable to injury-induced post-transcriptional transport of the voltage-gated sodium channel 1.8 (NaV1.8) mRNA, axonal accumulation of NaV1.8 mRNA, and its local protein translation leading to the increased NaV1.8 functional expression in injured nerve^136. The hyperexcitability and ectopic burst discharge of primary sensory neurons are widely considered to be the major contributors to pain symptomatology of peripheral neuropathy models. The SNE-induced mechanical allodynia effectively models the most common complaint of human neuropathy patients of dynamic mechanical allodynia. Behavioral measurements of mechanical sensitivity were conducted before and after induction of SNE as follows:
Rats are placed in a plastic-walled cage (10×20×13 cm) with a metal mesh floor (0.6×0.6 cm holes) and allowed to acclimate for 10 min. The amount of pressure (g) needed to evoke a hindpaw withdrawal response is measured 4 times on each paw separated by 30-s intervals using a von Frey-type digital meter (Model 1601C, IITC Instr.). Results of 4 tests/session are averaged for each paw.

[2] = molecular target: CB2R (Homo sapiens, UniProt P34972); assay: CB2R radioligand displacement binding assay (CP55940 radioligand)
Sequence of CB2R (P34972 whole entry): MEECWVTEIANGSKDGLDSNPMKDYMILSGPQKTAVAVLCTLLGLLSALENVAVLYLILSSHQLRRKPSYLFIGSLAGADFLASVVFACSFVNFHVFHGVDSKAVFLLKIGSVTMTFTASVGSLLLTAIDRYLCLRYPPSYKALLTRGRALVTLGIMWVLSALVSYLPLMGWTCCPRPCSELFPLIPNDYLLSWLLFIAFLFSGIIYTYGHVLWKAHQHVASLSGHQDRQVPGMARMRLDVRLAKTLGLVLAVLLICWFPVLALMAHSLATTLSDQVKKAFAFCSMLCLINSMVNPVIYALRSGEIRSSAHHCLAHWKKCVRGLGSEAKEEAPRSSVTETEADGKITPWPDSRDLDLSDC
Description: Detailed radioligand displacement assays (using the well-characterized CBR agonist […] as the radioligand) were conducted to determine the affinity (Ki) of the test compounds for CB1R and CB2R as has been previously described by our group^112,113. Heterologous competition binding assays were performed to calculate receptor affinities. Unlabeled SR141716 or SR144528 were used as appropriate controls for non-specific binding (NSB) in the assay. Calculation of the equilibrium dissociation constant (Ki) was performed using the Cheng-Prusoff equation.

[3] = molecular target: human CB1R (hCB1R) (Homo sapiens, UniProt P21554); assay: human CB1R (hCB1R) calcium flux assay; assay type: cell-based; conditions: Table 1; read-out: Ca Flux % Emax
Sequence of human CB1R (hCB1R) (P21554 whole entry): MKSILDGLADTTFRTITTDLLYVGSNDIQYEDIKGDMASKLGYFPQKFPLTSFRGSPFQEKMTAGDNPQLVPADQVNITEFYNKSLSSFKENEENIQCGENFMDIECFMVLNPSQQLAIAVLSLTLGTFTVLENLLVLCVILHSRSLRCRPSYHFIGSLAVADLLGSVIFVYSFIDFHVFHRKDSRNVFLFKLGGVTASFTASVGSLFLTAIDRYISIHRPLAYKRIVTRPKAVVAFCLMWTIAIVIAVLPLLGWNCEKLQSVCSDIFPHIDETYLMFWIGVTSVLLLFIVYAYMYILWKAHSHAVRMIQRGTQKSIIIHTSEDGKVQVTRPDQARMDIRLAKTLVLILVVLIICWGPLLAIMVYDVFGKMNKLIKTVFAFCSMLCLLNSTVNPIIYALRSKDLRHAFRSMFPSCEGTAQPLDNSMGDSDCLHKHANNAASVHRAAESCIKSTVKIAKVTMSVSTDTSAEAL
Text: Compounds were first screened for: a) CB1R and CB2R binding, b) CB1R agonist activity using the human CB1R (hCB1R) calcium flux assay, and c) BBB permeability using the Madin-Darby canine kidney (MDCK-MDR1) cell line assay.
The calcium 3 dye assays were run according to manufacturer's specifications (http://www.moleculardevices.com/Products/Assay-Kits/GPCRs/FLIPR-Calcium.html) and as reported in our previous publications^112,113. Briefly, wells of black clear-bottom 96-well tissue culture-treated plates are seeded with 20,000 cells the afternoon before assay. The day of assay, the cells are incubated with the Ca^2+ indicator dye for 1 hr @ 37° C. For antagonist assays, the test compound is preincubated with the cells during the last 10 min of the dye incubation. Basal or unstimulated fluorescence intensity is recorded in the FlexStation @ 37° C. for 13 sec followed by the addition of test compound or CP 55,940 (depending on the assay endpoint). Fluorescence intensity is recorded for an additional 47 sec. The effect of test compound in each well is determined by subtracting the minimum from the maximum fluorescence during the 47-sec recording period.

[4] = molecular target: CB1R (Homo sapiens, UniProt P21554); assay: CB1R radioligand displacement binding assay (CP55940 radioligand)
Sequence of CB1R (P21554 whole entry): as above
Description: Heterologous competition binding assays were performed to calculate receptor affinities. Unlabeled SR141716 or SR144528 were used as appropriate controls for non-specific binding (NSB) in the assay. Calculation of the equilibrium dissociation constant (Ki) was performed using the Cheng-Prusoff equation.

[5] = Plasma stability assay; assay type: in vitro ADME; conditions: rat plasma, 10 μM
Description: Compounds are incubated at 10 μM in rat plasma at 37° C. A solution of each compound is prepared in ethanol at a concentration of 1 mM. A 2.5 μL volume of the 1 mM solution is added to 247.5 μL of rat plasma (male Sprague Dawley) in a glass test tube in a 37° C. water bath. Samples (50 μL) are removed at 0, 30 and 60 min and immediately extracted with 3 volumes (150 μL) of methanol. Samples are centrifuged (2500 rpm for 10 min at 4° C.) to pellet protein and supernatants transferred to LC/MS vials for analysis. Samples are stored at −80° C. prior to analysis.

[6] = tested on: rats; assay: Catalepsy (ring) test of the tetrad; assay type: in vivo, rat
Description: Catalepsy (ring) test. Catalepsy was determined with a ring immobility test^154, modified for rats^139, 153. Rats are placed with their forepaws on a horizontal metal ring (12 cm diameter) at a height that allows their hindpaws to just touch the bench surface. Immobility is recorded as the time for the rat to move off the ring with a 100 s cutoff. Rats are tested before vehicle/drug injections and again at various times after injection.

[7] = tested on: rats; assay: Hypothermia test of the tetrad; assay type: in vivo, rat; conditions: 2-3 hr
Description: Rats are acclimated to a plastic restrainer apparatus (Model RTV-180 Braintree Scientific Inc.) on the day of testing by placing them in the restrainer twice for 5 min separated by 20 min. Baseline core temperature is taken before treatment, and the rectal temperature is measured again at various times after injection of the CB1R ligands.

[8] = tested on: rats; assay: Rotarod test of the tetrad; assay type: in vivo, rat
Description: Rats were tested for motor function and the ataxic effects of novel drugs as described previously^151-153. To determine drug effects on motor coordination, rats are trained 72 h before the test (3 sessions 24 h apart) to remain for at least 180 s on a rotarod revolving at an acceleration of 4-40 revs over 5 min). Rats are tested immediately before vehicle or drug injections and tested again at 2, 6, 24 and 48 hrs after injection. The time for which the rats are able to remain on the rotarod is recorded up to a cut-off of 5 min.

[9] = S9 fraction stability assay; assay type: in vitro ADME; conditions: rat liver S9, 10 μM
Description: Compounds are incubated at 10 μM in rat (male Sprague Dawley) liver S9 at 37° C. Each compound is prepared in ethanol at a concentration of 1 mM. An assay mixture containing S9 (1 mg protein/mL final concentration) and an NADPH regenerating system (NADP [1 mM final], glucose 6-phosphate [5 mM final] and glucose 6-phosphate dehydrogenase [1 U/mL final]) in a buffer consisting of 50 mM KPO4 phosphate buffer, pH 7.4 with 3 mM MgCl2 is prepared and preincubated at 37° C. for 5 min. A 10 μL volume of the 1 mM solution is added to 990 μL of assay mixture in a glass test tube @ 37° C. to initiate the assay. Samples (50 μL) are removed at 0, 15, 30, 60 and 120 min and immediately extracted with 3 volumes (150 μL) of methanol, centrifuged to pellet protein and supernatants transferred to LC/MS vials for analysis.

[10] = Table 1, CP55940 radioligand, read-out: CB2_KI_CP
[11] = Table 1, CP55940 radioligand, read-out: CB1_KI_CP
[12] = read-out: CB1R binding affinity (Ki)

## 4-{2-[(1E)-2-[(4- methoxy- naphthalen-1- yl)methylidene]- 1H-inden-3- yl]ethyl} morpholine [Compound 10]
[1]
  effect on contralateral hindpaw withdrawal thresholds: Neither ENMI nor 13339-135-25 had any significant effect

## CCc1ccc(/C=C2\C=C(CCN3CCOCC3)c3ccccc32)c2ccccc12 [Compound 8, 4-{2-[(1E)-1-[(4-ethylnaphthalen-1-yl)methylidene]-1H-inden-3-yl]ethyl} morpholine]
[2]; [10]
  Ki: 0.79 nM
[3]
  Emax: 121%
[4]
  Ki: 1 nM
[4]; [11]
  Ki: 0.86 nM

## C1=C(CCN2CCOCC2)c2ccccc2/C1=C/c1cccc2ccccc12 [Compound 11, 4-{2-[(1E)-1-(naphthalen-1-ylmethylidene)-1H-inden-3-yl]ethyl} morpholine]
[5]; 30 min
  Plasma % remaining @ xy min: 95 @ 30%
[2]; [10]
  Ki: 5.62 nM
[3]
  Emax: 103%
[4]; [12]
  Ki: 4.69 nM
[6]; 0.3 mg/kg, intraperitoneal
  effect in the catalepsy assay: complete lack of effects
[6]
  Catalepsy % change from pre-drug (0.3 mg/kg) at 1-3 hrs: 0%
[7]
  Hypothermia % change from predrug (0.3 mg/kg) at 2-3 hr: 0%
[8]; 0.3 mg/kg, intraperitoneal
  effect in the rotarod assay: complete lack of effects
[8]
  Rotarod % change from pre-drug (0.3 mg/kg) at 2-3 hr: 0%
[9]; 30 min
  S9% remaining @ xy min: 35 @ 30%
[1]
  effect on SNE-induced mechanical allodynia (ipsilateral hindpaw withdrawal thresholds): anti-allodynic effects
  SNE Neuropath Assay-% return to pre-drug (0.3 mg/kg) contralateal threshold at 2-3 h: 37.8%
  effect on contralateral hindpaw withdrawal thresholds: Neither ENMI nor 13339-135-25 had any significant effect

## CCCCCn1cc(C(=O)c2ccc(C(=O)OC)c3ccccc23)c2ccccc21 [Compound 54, methyl 4-(1-pentyl-1H-indole-3-carbonyl) naphthalene-1-carboxylate]
[5]; 30 min
  Plasma % remaining @ xy min: 9.6 @ 30%
[2]
  Ki: 73.4 nM
[4]; [12]
  Ki: 20 nM
[9]; 30 min
  S9% remaining @ xy min: 2.62 @ 30%
[9]; 30 min, listed as 4-carbomethoxy ester
  S9% remaining @ xy min: 3%
[1]
  SNE Neuropath Assay-% return to pre-drug (0.3 mg/kg) contralateal threshold at 2-3 h: 0%

## COC(=O)c1ccc(C(=O)c2cn(CCN3CCOCC3)c3ccccc23)c2ccccc12 [Compound 56, methyl 4-{1-[2-(morpholin-4-yl)ethyl]-1H-indole-3-carbonyl} naphthalene-1-carboxylate]
[5]; 60 min
  Plasma % remaining @ xy min: 0 @ 60%
[2]
  Ki: 61.4 nM
[4]; [11]
  Ki: 52.4 nM
[9]; 60 min
  S9% remaining @ xy min: 0 @ 60%

## CCCCCn1cc(C(=O)c2ccc(C(=O)CC)c3ccccc23)c2ccccc21 [Compound 61, 1-[4-(1-pentyl-1H-indole-3-carbonyl)naphthalen-1-yl]propan-1-one]
[5]; 60 min
  Plasma % remaining @ xy min: 75 @ 60%
[2]
  Ki: 32.7 nM
[4]; [11]
  Ki: 5.71 nM
[9]; 60 min
  S9% remaining @ xy min: 3 @ 60%

## CCCCCn1cc(C(=O)c2cccc3ccccc23)c2c(F)cccc21 [Compound 62, 4-fluoro-3-(naphthalene-1-carbonyl)-1-pentyl-1H-indole]
[5]; 60 min
  Plasma % remaining @ xy min: 69 @ 60%
[2]; [10]
  Ki: 35.6 nM
[4]; [11]
  Ki: 6.5 nM
[9]; 60 min
  S9% remaining @ xy min: 5 @ 60%

## CCCCCn1cc(C(=O)c2cccc3ccccc23)c2cc(F)ccc21 [Compound 63, 5-fluoro-3-(naphthalene-1-carbonyl)-1-pentyl-1H-indole]
[5]; 60 min
  Plasma % remaining @ xy min: 99 @ 60%
[2]; [10]
  Ki: 65 nM
[4]; [11]
  Ki: 9.85 nM
[9]; 60 min
  S9% remaining @ xy min: 13 @ 60%

## CCCCCn1cc(C(=O)c2cccc3ccccc23)c2ccc(F)cc21 [Compound 64, 6-fluoro-3-(naphthalene-1-carbonyl)-1-pentyl-1H-indole]
[2]; [10]
  Ki: 16.4 nM
[4]; [11]
  Ki: 2.35 nM
[1]
  effect on SNE-induced mechanical allodynia (ipsilateral hindpaw withdrawal thresholds): anti-allodynic effects
  SNE Neuropath Assay-% return to pre-drug (0.3 mg/kg) contralateal threshold at 2-3 h: 54.4%

## CCCCCn1cc(C(=O)c2cccc3ccccc23)c2cccc(F)c21 [Compound 65, 7-fluoro-3-(naphthalene-1-carbonyl)-1-pentyl-1H-indole]
[5]; 60 min
  Plasma % remaining @ xy min: 97 @ 60%
[2]; [10]
  Ki: 2.7 nM
[3]
  Emax: 79%
[4]; [11]
  Ki: 3.62 nM
[6]
  Catalepsy % change from pre-drug (0.3 mg/kg) at 1-3 hrs: 0%
[7]
  Hypothermia % change from predrug (0.3 mg/kg) at 2-3 hr: 0%
[8]
  Rotarod % change from pre-drug (0.3 mg/kg) at 2-3 hr: 0%
[9]; 30 min
  S9% remaining @ xy min: ~58%
[9]; 60 min
  S9% remaining @ xy min: 50%
[9]; 120 min
  S9% remaining @ xy min: 36%
[1]
  SNE Neuropath Assay-% return to pre-drug (0.3 mg/kg) contralateal threshold at 2-3 h: 18.6%

## CCCc1ccc(C(=O)c2cn(CCCCCF)c3cccc(F)c23)c2ccccc12 [Compound 67, 4-fluoro-1-(5-fluoropentyl)-3-(4-propyl-naphthalene-1-carbonyl)-1H-indole]
[5]; 60 min
  Plasma % remaining @ xy min: 95 @ 60%
[2]
  Ki: 3.61 nM
[4]; [11]
  Ki: 2.55 nM
[9]; 60 min
  S9% remaining @ xy min: 6 @ 60%

## Cc1c(C(=O)NN2CCCCC2)nn(-c2ccc(Cl)cc2Cl)c1-c1ccc(Cl)cc1 [SR141617A, rimonabant, reference compound]
[1]
  effect of pretreatment with the CBR blocker on the anti-allodynic effect of PrNMI: completely blocked

## SR144528 [reference compound]
[1]
  effect of pretreatment with the CBR blocker on the anti-allodynic effect of PrNMI: little effect
